Assays:
[1] = biological target: Misshapen-like kinase 1 (Homo sapiens) (UniProt Q8N4C8); conditions: Compound concentration 1000.0 nM
[2] = test system: Mast/stem cell growth factor receptor Kit (Homo sapiens), P10721 [L576P]; conditions: Compound concentration 1000.0 nM
[3] = biological target: Phosphatidylinositol 4,5-bisphosphate 3-kinase catalytic subunit delta isoform (Homo sapiens) (UniProt O00329); conditions: Compound concentration 1000.0 nM
[4] = biological target: Tyrosine-protein kinase JAK1 (Homo sapiens) (UniProt P23458); conditions: Compound concentration 1000.0 nM
[5] = test system: Phosphatidylinositol 4,5-bisphosphate 3-kinase catalytic subunit alpha isoform (Homo sapiens), P42336 [E542K]; conditions: Compound concentration 1000.0 nM
[6] = biological target: Serine/threonine-protein kinase LATS2 (Homo sapiens) (UniProt Q9NRM7); conditions: Compound concentration 1000.0 nM
[7] = biological target: Rhodopsin kinase GRK1 (Homo sapiens) (UniProt Q15835); conditions: Compound concentration 1000.0 nM
[8] = biological target: Ribosomal protein S6 kinase beta-1 (Homo sapiens) (UniProt P23443); conditions: Compound concentration 1000.0 nM
[9] = biological target: Serine/threonine-protein kinase WNK2 (Homo sapiens) (UniProt Q9Y3S1); conditions: Compound concentration 1000.0 nM
[10] = biological target: Serine/threonine-protein kinase ULK3 (Homo sapiens) (UniProt Q6PHR2); conditions: Compound concentration 1000.0 nM
[11] = biological target: T1, Alpha-1B adrenergic receptor (Homo sapiens) (UniProt P35368); conditions: Compound concentration 10.0 uM
T1 sequence (whole entry): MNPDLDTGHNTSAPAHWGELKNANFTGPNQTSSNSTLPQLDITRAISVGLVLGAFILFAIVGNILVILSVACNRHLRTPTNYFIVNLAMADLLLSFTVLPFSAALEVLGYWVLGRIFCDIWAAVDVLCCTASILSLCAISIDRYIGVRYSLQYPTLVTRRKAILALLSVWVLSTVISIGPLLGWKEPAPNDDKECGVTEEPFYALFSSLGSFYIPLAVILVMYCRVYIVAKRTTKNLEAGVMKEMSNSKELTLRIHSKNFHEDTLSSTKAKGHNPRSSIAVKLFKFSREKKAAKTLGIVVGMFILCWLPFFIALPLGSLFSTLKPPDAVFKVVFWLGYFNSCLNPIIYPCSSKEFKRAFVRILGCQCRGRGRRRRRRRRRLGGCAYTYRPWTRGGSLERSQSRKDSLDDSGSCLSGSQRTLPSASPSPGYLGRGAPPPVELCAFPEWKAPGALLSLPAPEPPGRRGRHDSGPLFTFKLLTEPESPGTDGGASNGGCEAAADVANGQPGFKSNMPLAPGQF

[12] = biological target: Ribosomal protein S6 kinase alpha-1 (Homo sapiens) (UniProt Q15418); conditions: Compound concentration 1000.0 nM
[13] = biological target: Casein kinase II subunit alpha' (Homo sapiens) (UniProt P19784); conditions: Compound concentration 1000.0 nM
[14] = biological target: D(3) dopamine receptor (Homo sapiens) (UniProt P35462); conditions: Compound concentration 10.0 uM
[15] = biological target: Fibroblast growth factor receptor 1 (Homo sapiens) (UniProt P11362); conditions: Compound concentration 1000.0 nM
[16] = biological target: Serine/threonine-protein kinase Chk2 (Homo sapiens) (UniProt O96017); conditions: Compound concentration 1000.0 nM
[17] = biological target: Vascular endothelial growth factor receptor 1 (Homo sapiens) (UniProt P17948); conditions: Compound concentration 1000.0 nM
[18] = biological target: Calcium/calmodulin-dependent protein kinase kinase 2 (Homo sapiens) (UniProt Q96RR4); conditions: Compound concentration 1000.0 nM
[19] = biological target: T2, Muscarinic acetylcholine receptor M2 (Homo sapiens) (UniProt P08172); conditions: Compound concentration 10.0 uM
T2 sequence (whole entry): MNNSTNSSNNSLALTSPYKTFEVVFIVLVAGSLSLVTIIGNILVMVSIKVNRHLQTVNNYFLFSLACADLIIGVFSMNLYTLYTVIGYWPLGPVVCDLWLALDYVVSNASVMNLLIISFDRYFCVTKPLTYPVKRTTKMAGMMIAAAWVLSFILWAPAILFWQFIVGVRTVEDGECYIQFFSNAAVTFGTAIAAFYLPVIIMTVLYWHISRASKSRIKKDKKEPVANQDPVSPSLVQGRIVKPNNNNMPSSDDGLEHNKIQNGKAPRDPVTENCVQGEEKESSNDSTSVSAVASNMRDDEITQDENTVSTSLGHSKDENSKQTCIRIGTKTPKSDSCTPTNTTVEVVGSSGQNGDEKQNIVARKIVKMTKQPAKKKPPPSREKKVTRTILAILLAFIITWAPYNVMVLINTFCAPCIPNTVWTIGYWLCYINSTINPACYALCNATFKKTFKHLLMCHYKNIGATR

[20] = biological target: T3, cGMP-dependent protein kinase 2 (Homo sapiens) (UniProt Q13237); conditions: Compound concentration 1000.0 nM
T3 sequence (whole entry): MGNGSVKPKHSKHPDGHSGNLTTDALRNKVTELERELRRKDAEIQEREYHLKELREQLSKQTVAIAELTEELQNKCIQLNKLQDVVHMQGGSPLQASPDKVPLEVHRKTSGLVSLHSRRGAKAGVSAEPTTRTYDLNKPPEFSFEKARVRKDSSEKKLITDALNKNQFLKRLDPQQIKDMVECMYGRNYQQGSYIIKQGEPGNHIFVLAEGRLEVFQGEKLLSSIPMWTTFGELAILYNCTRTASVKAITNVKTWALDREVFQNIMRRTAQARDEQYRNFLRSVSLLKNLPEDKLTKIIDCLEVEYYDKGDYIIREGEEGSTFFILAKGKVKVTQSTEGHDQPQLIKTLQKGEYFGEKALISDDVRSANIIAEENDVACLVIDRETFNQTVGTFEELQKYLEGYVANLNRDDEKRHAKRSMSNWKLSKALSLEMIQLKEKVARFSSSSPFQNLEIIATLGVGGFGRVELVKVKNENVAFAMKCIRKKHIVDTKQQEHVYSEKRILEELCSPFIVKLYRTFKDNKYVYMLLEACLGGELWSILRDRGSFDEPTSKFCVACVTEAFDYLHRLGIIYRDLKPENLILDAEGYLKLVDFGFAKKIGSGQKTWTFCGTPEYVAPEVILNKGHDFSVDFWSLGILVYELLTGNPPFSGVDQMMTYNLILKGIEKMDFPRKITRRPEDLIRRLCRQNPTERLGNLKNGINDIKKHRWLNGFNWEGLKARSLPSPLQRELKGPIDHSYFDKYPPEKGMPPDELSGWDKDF

[21] = biological target: RAC-gamma serine/threonine-protein kinase (Homo sapiens) (UniProt Q9Y243); conditions: Compound concentration 1000.0 nM

Sequence of Ribosomal protein S6 kinase alpha-1 (Homo sapiens) (Q15418 whole entry): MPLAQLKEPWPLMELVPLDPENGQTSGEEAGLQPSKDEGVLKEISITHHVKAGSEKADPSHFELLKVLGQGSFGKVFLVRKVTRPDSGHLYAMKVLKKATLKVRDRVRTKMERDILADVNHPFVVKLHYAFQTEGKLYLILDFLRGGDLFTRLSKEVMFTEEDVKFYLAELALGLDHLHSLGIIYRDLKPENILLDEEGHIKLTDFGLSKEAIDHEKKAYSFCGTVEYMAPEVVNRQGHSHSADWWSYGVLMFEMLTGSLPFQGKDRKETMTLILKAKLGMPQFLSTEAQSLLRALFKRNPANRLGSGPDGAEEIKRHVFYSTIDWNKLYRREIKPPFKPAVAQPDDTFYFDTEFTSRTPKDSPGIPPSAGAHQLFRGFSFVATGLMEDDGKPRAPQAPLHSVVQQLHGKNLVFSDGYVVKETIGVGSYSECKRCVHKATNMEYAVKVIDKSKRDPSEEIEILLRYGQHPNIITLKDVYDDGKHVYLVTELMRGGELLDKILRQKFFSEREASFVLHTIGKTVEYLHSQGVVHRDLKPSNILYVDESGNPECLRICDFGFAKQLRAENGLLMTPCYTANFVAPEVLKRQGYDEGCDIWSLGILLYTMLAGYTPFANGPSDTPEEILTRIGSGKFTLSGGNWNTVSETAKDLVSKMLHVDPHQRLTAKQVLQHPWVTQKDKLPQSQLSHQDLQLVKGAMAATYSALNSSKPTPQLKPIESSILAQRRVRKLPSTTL
Sequence of Misshapen-like kinase 1 (Homo sapiens) (Q8N4C8 whole entry, looked up): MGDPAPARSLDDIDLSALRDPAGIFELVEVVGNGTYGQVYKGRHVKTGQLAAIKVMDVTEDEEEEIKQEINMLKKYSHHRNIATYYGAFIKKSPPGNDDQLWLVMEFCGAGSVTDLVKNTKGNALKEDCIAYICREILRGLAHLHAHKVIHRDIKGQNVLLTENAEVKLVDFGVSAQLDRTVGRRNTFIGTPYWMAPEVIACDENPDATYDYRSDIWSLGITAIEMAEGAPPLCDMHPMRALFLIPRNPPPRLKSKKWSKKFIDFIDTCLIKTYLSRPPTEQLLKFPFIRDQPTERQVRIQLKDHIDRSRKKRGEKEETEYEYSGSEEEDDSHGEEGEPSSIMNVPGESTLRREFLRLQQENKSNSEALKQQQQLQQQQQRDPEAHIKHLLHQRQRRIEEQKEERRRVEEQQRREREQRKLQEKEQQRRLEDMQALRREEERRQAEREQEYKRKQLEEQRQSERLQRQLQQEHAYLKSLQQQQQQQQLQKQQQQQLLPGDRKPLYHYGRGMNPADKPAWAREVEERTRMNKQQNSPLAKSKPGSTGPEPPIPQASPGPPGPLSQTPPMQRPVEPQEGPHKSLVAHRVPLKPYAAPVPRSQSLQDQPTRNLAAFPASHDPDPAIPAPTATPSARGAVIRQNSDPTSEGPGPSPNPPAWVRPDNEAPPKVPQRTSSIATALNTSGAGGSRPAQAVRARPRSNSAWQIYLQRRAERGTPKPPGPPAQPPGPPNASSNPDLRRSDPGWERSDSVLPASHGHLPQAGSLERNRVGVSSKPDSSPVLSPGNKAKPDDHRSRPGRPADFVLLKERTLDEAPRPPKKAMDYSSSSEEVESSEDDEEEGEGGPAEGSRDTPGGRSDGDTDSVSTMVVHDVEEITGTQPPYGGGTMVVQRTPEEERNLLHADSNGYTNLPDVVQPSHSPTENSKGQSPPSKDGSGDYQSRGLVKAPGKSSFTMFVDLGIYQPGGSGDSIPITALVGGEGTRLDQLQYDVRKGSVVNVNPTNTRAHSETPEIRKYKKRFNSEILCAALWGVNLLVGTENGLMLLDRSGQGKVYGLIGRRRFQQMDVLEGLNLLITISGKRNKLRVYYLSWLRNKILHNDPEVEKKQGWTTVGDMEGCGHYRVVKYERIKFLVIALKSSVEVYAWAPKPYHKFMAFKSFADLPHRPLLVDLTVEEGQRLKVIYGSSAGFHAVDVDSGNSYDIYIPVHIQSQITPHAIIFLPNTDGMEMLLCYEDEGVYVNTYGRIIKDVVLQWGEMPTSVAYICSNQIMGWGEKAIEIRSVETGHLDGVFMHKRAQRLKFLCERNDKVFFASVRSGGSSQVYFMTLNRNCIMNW
Sequence of Serine/threonine-protein kinase Chk2 (Homo sapiens) (O96017 whole entry): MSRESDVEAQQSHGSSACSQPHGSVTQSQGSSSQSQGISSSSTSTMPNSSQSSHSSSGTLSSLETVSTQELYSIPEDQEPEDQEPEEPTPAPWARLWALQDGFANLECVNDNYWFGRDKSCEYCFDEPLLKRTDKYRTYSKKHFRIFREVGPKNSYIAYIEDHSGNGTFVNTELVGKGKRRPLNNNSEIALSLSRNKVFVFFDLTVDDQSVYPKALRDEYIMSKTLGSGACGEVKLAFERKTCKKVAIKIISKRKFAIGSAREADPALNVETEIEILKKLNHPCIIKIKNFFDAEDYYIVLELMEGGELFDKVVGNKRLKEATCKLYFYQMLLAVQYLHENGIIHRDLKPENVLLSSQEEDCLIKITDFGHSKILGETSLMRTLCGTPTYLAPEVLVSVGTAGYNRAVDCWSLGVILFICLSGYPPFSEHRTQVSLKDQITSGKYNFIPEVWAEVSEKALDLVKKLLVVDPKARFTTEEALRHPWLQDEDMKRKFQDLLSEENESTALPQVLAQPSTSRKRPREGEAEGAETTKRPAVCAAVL
Sequence of D(3) dopamine receptor (Homo sapiens) (P35462 whole entry): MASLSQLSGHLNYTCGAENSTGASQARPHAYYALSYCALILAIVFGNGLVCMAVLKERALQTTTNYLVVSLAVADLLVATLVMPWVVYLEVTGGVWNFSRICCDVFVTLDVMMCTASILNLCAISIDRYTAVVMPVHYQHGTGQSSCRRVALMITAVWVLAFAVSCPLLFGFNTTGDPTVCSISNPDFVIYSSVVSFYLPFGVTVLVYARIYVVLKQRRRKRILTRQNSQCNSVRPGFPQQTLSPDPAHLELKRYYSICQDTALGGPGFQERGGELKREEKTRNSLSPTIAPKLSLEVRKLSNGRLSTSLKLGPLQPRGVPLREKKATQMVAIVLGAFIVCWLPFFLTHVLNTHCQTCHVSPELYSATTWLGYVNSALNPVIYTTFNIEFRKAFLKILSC
Sequence of Phosphatidylinositol 4,5-bisphosphate 3-kinase catalytic subunit delta isoform (Homo sapiens) (O00329 whole entry, canonical isoform): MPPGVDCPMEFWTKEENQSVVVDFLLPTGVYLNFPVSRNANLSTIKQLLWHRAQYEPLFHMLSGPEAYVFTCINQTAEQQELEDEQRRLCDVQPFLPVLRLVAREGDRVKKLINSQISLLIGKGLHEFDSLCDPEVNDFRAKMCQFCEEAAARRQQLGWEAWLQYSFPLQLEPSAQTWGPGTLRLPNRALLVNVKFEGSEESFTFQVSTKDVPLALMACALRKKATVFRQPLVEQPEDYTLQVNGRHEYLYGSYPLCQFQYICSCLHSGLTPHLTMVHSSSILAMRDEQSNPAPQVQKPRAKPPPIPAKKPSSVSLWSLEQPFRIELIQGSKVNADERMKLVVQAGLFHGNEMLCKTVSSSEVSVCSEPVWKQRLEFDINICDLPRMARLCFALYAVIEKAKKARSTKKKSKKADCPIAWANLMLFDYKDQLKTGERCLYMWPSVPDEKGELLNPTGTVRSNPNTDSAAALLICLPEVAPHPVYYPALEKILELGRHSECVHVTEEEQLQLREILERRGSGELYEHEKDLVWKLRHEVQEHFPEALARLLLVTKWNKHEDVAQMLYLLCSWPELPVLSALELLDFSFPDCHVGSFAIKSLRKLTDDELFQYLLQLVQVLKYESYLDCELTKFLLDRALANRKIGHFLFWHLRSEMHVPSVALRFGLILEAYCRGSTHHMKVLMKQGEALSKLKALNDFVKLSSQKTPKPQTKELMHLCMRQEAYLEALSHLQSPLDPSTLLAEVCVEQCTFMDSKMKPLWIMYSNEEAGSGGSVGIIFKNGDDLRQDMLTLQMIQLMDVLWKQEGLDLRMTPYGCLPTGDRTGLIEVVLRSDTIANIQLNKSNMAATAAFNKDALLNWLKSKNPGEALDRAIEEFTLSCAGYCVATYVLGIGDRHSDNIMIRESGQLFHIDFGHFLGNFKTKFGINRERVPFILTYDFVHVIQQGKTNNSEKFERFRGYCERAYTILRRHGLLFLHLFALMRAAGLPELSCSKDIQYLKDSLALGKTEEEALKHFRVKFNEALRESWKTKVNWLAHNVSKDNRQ
Sequence of Rhodopsin kinase GRK1 (Homo sapiens) (Q15835 whole entry): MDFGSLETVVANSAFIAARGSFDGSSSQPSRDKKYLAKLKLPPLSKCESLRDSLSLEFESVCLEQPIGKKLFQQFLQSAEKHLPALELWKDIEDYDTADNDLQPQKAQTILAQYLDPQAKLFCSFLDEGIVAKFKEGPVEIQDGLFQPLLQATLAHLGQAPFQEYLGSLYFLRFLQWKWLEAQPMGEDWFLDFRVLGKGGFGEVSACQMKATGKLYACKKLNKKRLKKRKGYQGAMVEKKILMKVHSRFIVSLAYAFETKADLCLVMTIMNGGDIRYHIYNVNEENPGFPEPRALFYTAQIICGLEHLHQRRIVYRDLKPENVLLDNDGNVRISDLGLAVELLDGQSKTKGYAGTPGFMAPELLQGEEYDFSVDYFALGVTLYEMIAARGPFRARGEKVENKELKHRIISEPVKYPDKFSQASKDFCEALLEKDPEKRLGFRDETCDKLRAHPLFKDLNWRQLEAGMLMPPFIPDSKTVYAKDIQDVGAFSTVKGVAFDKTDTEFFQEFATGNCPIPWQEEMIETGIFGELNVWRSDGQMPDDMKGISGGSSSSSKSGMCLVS
Sequence of Casein kinase II subunit alpha' (Homo sapiens) (P19784 whole entry, looked up): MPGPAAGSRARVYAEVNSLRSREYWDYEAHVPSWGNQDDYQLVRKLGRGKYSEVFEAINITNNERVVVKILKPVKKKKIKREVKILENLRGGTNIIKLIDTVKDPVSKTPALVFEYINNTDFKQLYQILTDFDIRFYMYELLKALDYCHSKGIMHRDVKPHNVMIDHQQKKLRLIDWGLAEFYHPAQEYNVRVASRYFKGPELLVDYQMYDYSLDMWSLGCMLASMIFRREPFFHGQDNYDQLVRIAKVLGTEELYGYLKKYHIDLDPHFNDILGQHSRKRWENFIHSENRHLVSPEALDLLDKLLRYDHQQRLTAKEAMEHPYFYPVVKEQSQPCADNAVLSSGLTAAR

SMILES	residual activity [1] [%]	residual activity [2] [%]	residual activity [3] [%]	residual activity [4] [%]	residual activity [5] [%]	residual activity [6] [%]	residual activity [7] [%]	residual activity [8] [%]	residual activity [9] [%]	residual activity [10] [%]	inhibition [11] [%]	residual activity [12] [%]	residual activity [13] [%]	inhibition [14] [%]	residual activity [15] [%]	residual activity [16] [%]	residual activity [17] [%]	residual activity [18] [%]	inhibition [19] [%]	residual activity [20] [%]	other results
CN(C)C(=O)Cn1cc(-c2nc(C3(c4ccc(-c5cnc(N)nc5)cc4)CC3)no2)cn1 [BI 0153]	91	84	100	100	76	46	74	91	67	68	5.11	100	100	-2.44	72	100	100	100	-0.311	100	residual activity [21]: 87%
CN(C)C(=O)Cn1cc(-c2nc([C@@](C)(c3ccc(-c4cnc(N)nc4)cc3)C3CC3)no2)cn1 [BI 665915]	85	63	93	33	79	74	100	83	100	86	2.84	99	90	-5.97	95	100	100	100	-7.53	85	residual activity [21]: 100%

From ChEMBL document CHEMBL4507276 (2021)
